Assay results taken from patent US9156827B2, “Anticancer agent” (THE UNIVERSITY OF TOKYO, priority 2010, dated 2015).
Counter-ions that a name gives are not always drawn.

Legend:
pim-1 kinase = pim-1 kinase (Homo sapiens, UniProt P11309); experiment: Measurement of pim-1 kinase inhibitory activity (fluorescent substrate peptide, capillary electrophoresis); type: biochemical; settings: 0.1 μM of each compound, 30 μM ATP, 1.5 μM substrate peptide, room temperature 2 hours
Protocol: Measurement of Pim-1 Kinase Inhibitory Activity
The result of the reaction was determined by quantifying the substrate and the phosphorylated reaction product separated by capillary electrophoresis based on difference in charges of the substances (EZ Reader II, Caliper Life Sciences, was used).

[1] = system: Human acute myeloid leukemia MV4-11 cells; experiment: Cell proliferation-suppressing activity, chromogenic method (MTT assay); type: cell-based; settings: 72 h, compound 1 μM, MTT assay three days after addition
Protocol: (§1) Measurement of Cell Proliferation-Suppressing Activity (Chromogenic Method)
Human acute myeloid leukemia MV4-11 cells (10^4 cells) were inoculated on a 96-well microtiter plate, each compound was added at a final concentration of 1 μM 24 hours afterward, and MTT assay was performed three days after the addition of the compound to measure the cell proliferation-suppressing activity.

[2] = system: Human acute myeloid leukemia MV4-11 cells; experiment: Cell proliferation-suppressing activity, chromogenic method (Cell Counting Kit-8); type: cell-based; settings: compound 1 μM, 48 hours, Cell Counting Kit-8, absorbance 450 nm, Table 7
Protocol: as §1
Human acute myeloid leukemia MV4-11 cells (2×10^4 cells) are inoculated on a 96-well microtiter plate. Each compound is added at a final concentration of 1 μM on the next day, and the cells are cultured for additional 48 hours. Absorbance is measured at 450 nm by using Cell Counting Kit-8 (Nacalai Tesque) to calculate the cell proliferation-suppressing activity.

pim-1 kinase, sequence (P11309 whole entry): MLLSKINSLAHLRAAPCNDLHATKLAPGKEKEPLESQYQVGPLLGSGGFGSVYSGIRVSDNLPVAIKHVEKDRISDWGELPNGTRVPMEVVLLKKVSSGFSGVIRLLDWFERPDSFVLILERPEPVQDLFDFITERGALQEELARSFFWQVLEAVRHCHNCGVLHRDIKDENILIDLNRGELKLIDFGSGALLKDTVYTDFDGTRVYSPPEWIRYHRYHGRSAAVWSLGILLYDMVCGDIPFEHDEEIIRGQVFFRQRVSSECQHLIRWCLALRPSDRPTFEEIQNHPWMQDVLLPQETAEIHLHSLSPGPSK

Row | SMILES | inhibition at 0.1 µM (pim-1 kinase; Table 1) [%] | inhibition at 1 µM ([1]; Table 3) [%] | inhibition at 0.1 µM (pim-1 kinase; Table 2) [%] | inhibition at 1 µM ([1]; Table 4) [%] | inhibition at 1 µM [2] [%]
1 | CN(C)C1CCN(Cc2c(O)ccc3c2O/C(=C\c2c[nH]c4ccccc24)C3=O)C1 (stereo not shown) [Compound A3, (Z)-2-[(1H-Indol-3-yl)methylene]-7-{[3-(dimethylamino)pyrrolidin-1-yl]methyl}-6-hydroxybenzofuran-3(2H)-one] | 47 | 41 |  |  | 
2 | O=C1CN(Cc2c(O)ccc3c2O/C(=C\c2c[nH]c4ccccc24)C3=O)CCN1 [Compound A7, (Z)-4-({2-[(1H-Indol-3-yl)methylene]-6-hydroxy-3-oxo-2,3-dihydrobenzofuran-7-yl}methyl)piperazin-2-one] | 81 | 22 |  |  | 
3 | O=C1/C(=C/c2c[nH]c3ccccc23)Oc2c1ccc(O)c2CN1CCNCC1 [Compound A11, (Z)-2-[(1H-Indol-3-yl)methylene]-6-hydroxy-7-(piperazin-1-ylmethyl)benzofuran-3(2H)-one] | 87 | 82 |  |  | 
4 | O=C1/C(=C/c2c[nH]c3ccc([N+](=O)[O-])cc23)Oc2c1ccc(O)c2CN1CCNCC1 [Compound A17, (Z)-6-Hydroxy-2-[(5-nitro-1H-indol-3-yl)methylene]-7-(piperazin-1-ylmethyl)benzofuran-3(2H)-one dihydrochloride] | 82 | 73 |  |  | 
5 | O=C1/C(=C/c2c[nH]c3ccc(Br)cc23)Oc2c1ccc(O)c2CN1CCNCC1 [Compound A22, (Z)-2-[(5-Bromo-1H-indol-3-yl)methylene]-6-hydroxy-7-(piperazin-1-ylmethyl)benzofuran-3(2H)-one dihydrochloride] | 94 | 70 |  |  | 
6 | C[C@H]1CNCCN1Cc1c(O)ccc2c1O/C(=C\c1n[nH]c3ccccc13)C2=O [Compound B3, (Z)-2-[(1H-Indazol-3-yl)methylene]-6-hydroxy-7-{[2-(S)-methylpiperazin-1-yl]methyl}benzofuran-3(2H)-one] |  |  | 79 | 79 | 
7 | CC(c1c(O)ccc2c1O/C(=C\c1n[nH]c3ccccc13)C2=O)N1CCNCC1 (stereo not shown) [Compound B7, (Z)-2-[(1H-Indazol-3-yl)methylene]-6-hydroxy-7-[1-(piperazin-1-yl)ethyl]benzofuran-3(2H)-one] |  |  | 86 | 88 | 
8 | COc1ccc2c(c1CN1CCNCC1)O/C(=C\c1n[nH]c3ccccc13)C2=O [Compound B17, (Z)-2-[(1H-Indazol-3-yl)methylene]-6-methoxy-7-(piperazin-1-ylmethyl)benzofuran-3(2H)-one] |  |  | 100 | 93 | 
9 | COc1ccc2c(c1CN1CCNCC1)O/C(=C\c1n[nH]c3ccc(Cl)cc13)C2=O [Compound B18, (Z)-2-[(5-Chloro-1H-indazol-3-yl)methylene]-6-methoxy-7-(piperazin-1-ylmethyl)benzofuran-3(2H)-one] |  |  | 95 | 87 | 
10 | COc1ccc2c(c1CN1CCNCC1)O/C(=C\c1n[nH]c3ccc(Br)cc13)C2=O [Compound B19, (Z)-2-[(5-Bromo-1H-indazol-3-yl)methylene]-6-methoxy-7-(piperazin-1-ylmethyl)benzofuran-3(2H)-one] |  |  | 100 | 94 | 
11 | COc1ccc2c(c1C#CC1CCNCC1)O/C(=C\c1n[nH]c3ccccc13)C2=O [Compound B55, (Z)-2-[(1H-Indazol-3-yl)methylene]-6-methoxy-7-(piperidin-4-ylethynyl)benzofuran-3(2H)-one] |  |  | 84 |  | 99
12 | COc1ccc2c(c1/C=C\C1CCNCC1)O/C(=C\c1n[nH]c3ccccc13)C2=O [Compound B56, (Z)-2-[(1H-Indazol-3-yl)methylene]-6-methoxy-7-[(Z)-2-(piperidin-4-yl)vinyl]benzofuran-3(2H)-one] |  |  | 95 |  | 99
13 | COc1ccc2c(c1CCC1CCNCC1)O/C(=C\c1n[nH]c3ccccc13)C2=O [Compound B57, (Z)-2-[(1H-Indazol-3-yl)methylene]-6-methoxy-7-[2-(piperidin-4-yl)ethyl]benzofuran-3(2H)-one] |  |  | 89 |  | 99
14 | COc1ccc2c(c1C#CCC1CCNCC1)O/C(=C\c1n[nH]c3ccccc13)C2=O [Compound B58, (Z)-2-[(1H-Indazol-3-yl)methylene]-6-methoxy-7-[3-(piperidin-4-yl)prop-1-ynyl]benzofuran-3(2H)-one] |  |  | 90 |  | 94
15 | COc1ccc2c(c1/C=C\CC1CCNCC1)O/C(=C\c1n[nH]c3ccccc13)C2=O [Compound B59, (Z)-2-[(1H-Indazol-3-yl)methylene]-6-methoxy-7-[(Z)-3-(piperidin-4-yl)prop-1-enyl]benzofuran-3(2H)-one] |  |  | 96 |  | 55
16 | COc1ccc2c(c1CCCC1CCNCC1)O/C(=C\c1n[nH]c3ccccc13)C2=O [Compound B60, (Z)-2-[(1H-Indazol-3-yl)methylene]-6-methoxy-7-[3-(piperidin-4-yl)propyl]benzofuran-3(2H)-one] |  |  | 95 |  | 98
17 | COc1ccc2c(c1C#CCCC1CCNCC1)O/C(=C\c1n[nH]c3ccccc13)C2=O [Compound B61, (Z)-2-[(1H-Indazol-3-yl)methylene]-6-methoxy-7-[4-(piperidin-4-yl)but-1-ynyl]benzofuran-3(2H)-one] |  |  | 70 |  | 97
18 | COc1ccc2c(c1/C=C\CCC1CCNCC1)O/C(=C\c1n[nH]c3ccccc13)C2=O [Compound B62, (Z)-2-[(1H-Indazol-3-yl)methylene]-6-methoxy-7-[(Z)-4-(piperidin-4-yl)but-1-enyl]benzofuran-3(2H)-one] |  |  | 71 |  | 93
19 | COc1ccc2c(c1CCCCC1CCNCC1)O/C(=C\c1n[nH]c3ccccc13)C2=O [Compound B63, (Z)-2-[(1H-Indazol-3-yl)methylene]-6-methoxy-7-[4-(piperidin-4-yl)butyl]benzofuran-3(2H)-one] |  |  | 95 |  | 95
20 | COc1ccc2c(c1/C=C/C1CCNCC1)O/C(=C\c1n[nH]c3ccccc13)C2=O [Compound B64, (Z)-2-[(1H-Indazol-3-yl)methylene]-6-methoxy-7-[(E)-2-(piperidin-4-yl)vinyl]benzofuran-3(2H)-one] |  |  | 81 |  | 93
21 | COc1ccc2c(c1/C=C/CC1CCNCC1)O/C(=C\c1n[nH]c3ccccc13)C2=O [Compound B65, (Z)-2-[(1H-Indazol-3-yl)methylene]-6-methoxy-7-[(E)-3-(piperidin-4-yl)prop-1-enyl]benzofuran-3(2H)-one] |  |  | 73 |  | 97
22 | COc1c(F)cc2c(c1CCC1CCNCC1)O/C(=C\c1n[nH]c3ccccc13)C2=O [Compound B66, (Z)-2-[(1H-Indazol-3-yl)methylene]-5-fluoro-6-methoxy-7-[2-(piperidin-4-yl)ethyl]benzofuran-3(2H)-one] |  |  | 89 |  | 88
23 | COc1ccc2c(c1C#CC(C)(C)N1CCNCC1)O/C(=C\c1n[nH]c3ccccc13)C2=O [Compound B67, (Z)-2-[(1H-Indazol-3-yl)methylene]-6-methoxy-7-[3-methyl-3-(piperazin-1-yl)but-1-ynyl]benzofuran-3(2H)-one] |  |  | 46 |  | 96
24 | O=C1/C(=C/c2n[nH]c3ncccc23)Oc2c1ccc(O)c2CN1CCNCC1 [Compound B68, (Z)-2-[(1H-Pyrazolo[3,4-b]pyridin-3-yl)methylene]-6-hydroxy-7-(piperazin-1-ylmethyl)benzofuran-3(2H)-one] |  |  | 93 |  | 52
25 | COc1ccc2c(c1CN1CCNCC1)O/C(=C\c1n[nH]c3ncccc13)C2=O [Compound B69, (Z)-2-[(1H-Pyrazolo[3,4-b]pyridin-3-yl)methylene]-6-methoxy-7-(piperazin-1-ylmethyl)benzofuran-3(2H)-one] |  |  | 95 |  | 100
26 | O=C1/C(=C/c2n[nH]c3ncccc23)Oc2c(CN3CCNCC3)cccc21 [Compound B70, (Z)-2-[(1H-Pyrazolo[3,4-b]pyridin-3-yl)methylene]-7-(piperazin-1-ylmethyl)benzofuran-3(2H)-one] |  |  | 94 |  | 77
27 | COc1ccc2c(c1CC1CCNCC1)O/C(=C\c1n[nH]c3ncccc13)C2=O [Compound B71, (Z)-2-[(1H-Pyrazolo[3,4-b]pyridin-3-yl)methylene]-6-methoxy-7-(piperidin-4-ylmethyl)benzofuran-3(2H)-one] |  |  | 95 |  | 100
28 | COc1ccc2c(c1CCC1CCNCC1)O/C(=C\c1n[nH]c3ncccc13)C2=O [Compound B72, (Z)-2-[(1H-Pyrazolo[3,4-b]pyridin-3-yl)methylene]-6-methoxy-7-[2-(piperidin-4-yl)ethyl]benzofuran-3(2H)-one] |  |  | 97 |  | 93
29 | COc1ccc2c(c1Cc1c(C)n[nH]c1C)O/C(=C\c1n[nH]c3ccccc13)C2=O [Compound B73, (Z)-2-[(1H-Indazol-3-yl)methylene]-7-[(3,5-dimethyl-1H-pyrazol-4-yl)methyl]-6-methoxybenzofuran-3(2H)-one] |  |  | 49 |  | 81
